Assay results: patent US20130324412A1, “N-ALKOXYAMIDES OF 6-(SUBSTITUTED PHENYL)-4-AMINOPICOLINATES AND 2-(SUBSTITUTED PHENYL)-6-AMINO-4-PYRIMIDINECARBOXYLATES AND THEIR USE AS SELECTIVE HERBICIDES FOR CROPS” (DOW AGROSCIENCES LLC, priority 2009, published 2013)

Tests used:
[1] = tested on: purple deadnettle (Lamium purpureum); assay: Postemergence herbicidal activity in oilseed rape (canola), purple deadnettle; type: in vivo; set-up: unit not given here; conditions: oilseed rape (canola) test, visual rating after 21 d, probit analysis, dose to kill or control 80 percent
Protocol: Seeds of oilseed rape (canola) and the desired weed species were planted in Sun Gro MetroMix® 360 planting mixture, which typically has a pH of 6.0 to 6.8 and an organic matter content of about 30 percent, in plastic pots with a surface area of 95 cm^2. When required to ensure good germination and healthy plants, a fungicide treatment and/or other chemical or physical treatment was applied. The plants were grown for 15-28 d in a greenhouse with an approximate 15-h photoperiod which was maintained at about 23-29° C. during the day and 22-28° C. during the night. Nutrients and water were added on a regular basis and supplemental lighting was provided with overhead metal halide 1000-Watt lamps as necessary. The oilseed rape (canola) plants were utilized for testing when they reached the third or fourth true leaf stage. The weed species were utilized at the fourth true leaf stage.
A weighed amount, determined by the highest rate to be tested, of each test compound was dissolved in 4 mL of a 97:3 v/v mixture of acetone and DMSO to obtain concentrated stock solutions. […] The concentrated stock solutions obtained were diluted with 20 mL of an aqueous mixture containing acetone, water and Agri-Dex crop oil concentrate, in a 16.7:82.1:1.25 v/v ratio to obtain spray solutions containing the highest application rates. Additional application rates were obtained by serial dilution of 12 mL of the high rate solution into a solution containing 2 mL of 97:3 v/v mixture of acetone and DMSO and 10 mL of an aqueous mixture containing acetone, water and Agri-Dex crop oil concentrate, in a 16.7:82.1:1.25 v/v ratio to obtain ½×, ¼×, ⅛× and 1/16× rates of the high rate. Compound requirements are based upon a 12 mL application volume at a rate of 187 L/ha. Formulated compounds were applied to the plant material with an overhead Mandel track sprayer equipped with 8002E nozzles calibrated to deliver 187 L/ha over an application area of 0.503 m^2 at a spray height of 18 inches (43 cm) above the average plant canopy height. Control plants were sprayed in the same manner with the solvent blank.
The treated plants and control plants were placed in a greenhouse as described above and watered by sub-irrigation to prevent wash-off of the test compounds. After 21 d, the condition of the test plants as compared with that of the untreated plants was determined visually and scored on a scale of 0 to 100 percent where 0 corresponds to no injury and 100 corresponds to complete kill.
By applying the well-accepted probit analysis as described by J. Berkson in Journal of the American Statistical Society 1953, 48, 565, and by D. Finney in “Probit Analysis” Cambridge University Press (1952), the above data can be used to calculate GR20 and GR80 values, which are defined as growth reduction factors that correspond to the effective dose of herbicide required to kill or control 20 percent or 80 percent, respectively, of a target plant.

[2] = tested on: wild buckwheat (Polygonum convululus); assay: General postemergence herbicidal activity, wild buckwheat; type: in vivo; conditions: post-emergence, 336 h, 70 g ai/ha, postemergence, after 14 d, 0 = no injury, 100 = complete kill, read-out: POLCO % Visual Injury
Outline: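 Greenhouse plants at first to second true leaf stage sprayed overhead at 187 L/ha in acetone/DMSO with crop oil concentrate and surfactant, at a high rate plus ½× to 1/16× serial dilutions. Injury rated visually after 14 d against solvent-blank controls, 0 (none) to 100% (complete kill).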

Compound	LAMPU GR80 [1]	pest or weed control at 70 g/ha [2] [%]
COc1c(Cl)ccc(-c2cc(N)c(Cl)c(C(=O)NOCC(C)C)n2)c1F [Compound 1, 4-amino-3-chloro-6-(4-chloro-2-fluoro-3-methoxyphenyl)-N-(2-methylpropoxy)picolinamide]	<4.38	100
CONC(=O)c1nc(-c2ccc(Cl)c(OC)c2F)cc(N)c1Cl [Compound 2, 4-Amino-3-chloro-6-(4-chloro-2-fluoro-3-methoxyphenyl)-N-methoxypicolinamide]	<4.38	100
